What was measured:
[1] = Plasma stability evaluation (TLC analysis); type: in vitro ADME; conditions: 37° C., 60 minutes, TLC analysis
How it was run: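 Radiolabelled compounds were incubated in heparin-treated pooled normal human plasma at 37° C for 60 minutes. After methanol deproteinization and centrifugation, stability was assessed by TLC under the conditions used for each compound's synthesis.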

[2] = In vivo kinetics experiment (radioactivity distribution); parameters: species or system Wistar male rat; conditions: rat i.v., mean ± SD
How it was run: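 Male Wistar rats (9 weeks) under isoflurane received approximately 1 to 3.7 MBq radiotracer in saline with 1 w/v % ascorbic acid by tail-vein injection. At 10, 30 and 60 min, rats were exsanguinated; blood, organs and remaining body weighed and counted, giving % ID/g and adrenal-to-tissue ratios.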

[3] = system: human adrenal gland section expressing aldosterone-producing adenoma; assay: In vitro autoradiography using human adrenal adenoma; type: binding; conditions: section of FIG. 17(b)
How it was run: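 Frozen 7-μm sections of human adrenal bearing aldosterone-producing adenoma were immersed 10 min in radioligand (5-33 kBq/mL) in PBS with 1% fatty-acid-free BSA, washed, then exposed to imaging plates for 16-20 h. Equal-area ROI PSL in adenoma (B2) versus normal cortex (B1) gave B2/B1, corrected for nuclide half-life, added activity and exposure time.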

For `Fc1cc2nc(-c3cncc(Cn4ccnc4)c3)n(Cc3ccc([123I])cc3)c2cc1Cl` [[^123I] 605, 6-Chloro-5-fluoro-1-(4-[^123I]iodobenzyl)-2-[5-(1H-imidazol-1-ylmethyl)-3-pyridinyl]-1H-benzimidazole], the “Radiochemical purity after incubation in human plasma” value [1] was 90%, the “Adrenal gland/blood ratio of radioactivity accumulation” value (“Adrenal gland/blood ratio” below) ([2]; 10 min after administration) was 39.83 ± 1.25 and the “Adrenal gland/fat ratio of radioactivity accumulation” value (“Adrenal gland/fat ratio” for short) ([2]; 10 min after administration) was 41.90 ± 6.19. For the same compound, the “Adrenal gland/kidney ratio of radioactivity accumulation” value (“Adrenal gland/kidney ratio” below) ([2]; 10 min after administration) was 2.61 ± 0.04, the “Adrenal gland/liver ratio of radioactivity accumulation” value (from here on “Adrenal gland/liver ratio”) ([2]; 10 min after administration) was 1.38 ± 0.01 and the “Adrenal gland/muscle ratio of radioactivity accumulation” value (from here on “Adrenal gland/muscle ratio”) ([2]; 10 min after administration) was 36.77 ± 3.87. For the same compound, the “Adrenal gland/small intestine ratio of radioactivity accumulation” value (shortened to “Adrenal gland/small intestine ratio”) ([2]; 10 min after administration) was 2.44 ± 0.80, the “Radioactivity distribution Adrenal gland” value ([2]; 10 min after administration) was 5.67 ± 0.25 % ID/g and the “Radioactivity distribution Bladder (including urine)” value (“Radioactivity distribution Bladder” for short) ([2]; 10 min after administration) was 0.09 ± 0.06 % ID/g. The “Radioactivity distribution Blood” value ([2]; 10 min after administration) was 0.14 ± 0.00 % ID/g, the “Radioactivity distribution Fat” value ([2]; 10 min after administration) was 0.14 ± 0.02 % ID/g and the “Radioactivity distribution Femur” value ([2]; 10 min after administration) was 0.51 ± 0.02 % ID/g. For the same compound, the “Radioactivity distribution Heart” value ([2]; 10 min after administration) was 0.73 ± 0.06 % ID/g, the “Radioactivity distribution Kidney” value ([2]; 10 min after administration) was 2.17 ± 0.09 % ID/g and the “Radioactivity distribution Large intestine” value ([2]; 10 min after administration) was 0.13 ± 0.01 % ID/g. For the same compound, the “Radioactivity distribution Liver” value ([2]; 10 min after administration) was 4.12 ± 0.23 % ID/g, the “Radioactivity distribution Lung” value ([2]; 10 min after administration) was 1.94 ± 0.16 % ID/g and the “Radioactivity distribution Muscle (lower limbs)” value ([2]; 10 min after administration) was 0.16 ± 0.01 % ID/g. For the same compound, the “Radioactivity distribution Remaining whole body” value ([2]; 10 min after administration) was 0.20 ± 0.01 % ID/g, the “Radioactivity distribution Small intestine” value ([2]; 10 min after administration) was 2.46 ± 0.61 % ID/g and the “Radioactivity distribution Spleen” value ([2]; 10 min after administration) was 1.08 ± 0.10 % ID/g. For the same compound, the “Radioactivity distribution Stomach” value ([2]; 10 min after administration) was 0.80 ± 0.23 % ID/g, the “Radioactivity distribution Testis” value ([2]; 10 min after administration) was 0.03 ± 0.00 % ID/g and the “Radioactivity distribution Whole brain” value ([2]; 10 min after administration) was 0.03 ± 0.00 % ID/g. For the same compound, the “Adrenal gland/blood ratio” value ([2]; 30 min after administration) was 26.42 ± 7.24, the “Adrenal gland/fat ratio” value ([2]; 30 min after administration) was 22.69 ± 9.87 and the “Adrenal gland/kidney ratio” value ([2]; 30 min after administration) was 2.58 ± 0.55. The “Adrenal gland/liver ratio” value ([2]; 30 min after administration) was 1.14 ± 0.36, the “Adrenal gland/muscle ratio” value ([2]; 30 min after administration) was 14.44 ± 5.54 and the “Adrenal gland/small intestine ratio” value ([2]; 30 min after administration) was 0.79 ± 0.34. For the same compound, the “Radioactivity distribution Adrenal gland” value ([2]; 30 min after administration) was 3.10 ± 1.06 % ID/g, the “Radioactivity distribution Bladder” value ([2]; 30 min after administration) was 0.15 ± 0.01 % ID/g and the “Radioactivity distribution Blood” value ([2]; 30 min after administration) was 0.12 ± 0.01 % ID/g. The “Radioactivity distribution Fat” value ([2]; 30 min after administration) was 0.14 ± 0.03 % ID/g, the “Radioactivity distribution Femur” value ([2]; 30 min after administration) was 0.44 ± 0.04 % ID/g and the “Radioactivity distribution Heart” value ([2]; 30 min after administration) was 0.52 ± 0.04 % ID/g. For the same compound, the “Radioactivity distribution Kidney” value ([2]; 30 min after administration) was 1.18 ± 0.14 % ID/g, the “Radioactivity distribution Large intestine” value ([2]; 30 min after administration) was 0.16 ± 0.01 % ID/g and the “Radioactivity distribution Liver” value ([2]; 30 min after administration) was 2.72 ± 0.12 % ID/g. The “Radioactivity distribution Lung” value ([2]; 30 min after administration) was 0.99 ± 0.10 % ID/g, the “Radioactivity distribution Muscle (lower limbs)” value ([2]; 30 min after administration) was 0.22 ± 0.02 % ID/g and the “Radioactivity distribution Remaining whole body” value ([2]; 30 min after administration) was 0.21 ± 0.02 % ID/g. For the same compound, the “Radioactivity distribution Small intestine” value ([2]; 30 min after administration) was 3.99 ± 0.33 % ID/g, the “Radioactivity distribution Spleen” value ([2]; 30 min after administration) was 0.58 ± 0.09 % ID/g and the “Radioactivity distribution Stomach” value ([2]; 30 min after administration) was 1.38 ± 0.42 % ID/g. For the same compound, the “Radioactivity distribution Testis” value ([2]; 30 min after administration) was 0.03 ± 0.00 % ID/g, the “Radioactivity distribution Whole brain” value ([2]; 30 min after administration) was 0.03 ± 0.00 % ID/g and the “Adrenal gland/blood ratio” value ([2]; 60 min after administration) was 20.07 ± 1.94. For the same compound, the “Adrenal gland/fat ratio” value ([2]; 60 min after administration) was 10.82 ± 1.23, the “Adrenal gland/kidney ratio” value ([2]; 60 min after administration) was 2.05 ± 0.09 and the “Adrenal gland/liver ratio” value ([2]; 60 min after administration) was 0.88 ± 0.05. The “Adrenal gland/muscle ratio” value ([2]; 60 min after administration) was 10.90 ± 0.67, the “Adrenal gland/small intestine ratio” value ([2]; 60 min after administration) was 0.26 ± 0.08 and the “Radioactivity distribution Adrenal gland” value ([2]; 60 min after administration) was 1.70 ± 0.21 % ID/g. The “Radioactivity distribution Bladder” value ([2]; 60 min after administration) was 0.13 ± 0.05 % ID/g, the “Radioactivity distribution Blood” value ([2]; 60 min after administration) was 0.09 ± 0.02 % ID/g and the “Radioactivity distribution Fat” value ([2]; 60 min after administration) was 0.16 ± 0.02 % ID/g. For the same compound, the “Radioactivity distribution Femur” value ([2]; 60 min after administration) was 0.36 ± 0.03 % ID/g, the “Radioactivity distribution Heart” value ([2]; 60 min after administration) was 0.35 ± 0.09 % ID/g and the “Radioactivity distribution Kidney” value ([2]; 60 min after administration) was 0.83 ± 0.10 % ID/g. The “Radioactivity distribution Large intestine” value ([2]; 60 min after administration) was 0.19 ± 0.03 % ID/g, the “Radioactivity distribution Liver” value ([2]; 60 min after administration) was 1.93 ± 0.37 % ID/g and the “Radioactivity distribution Lung” value ([2]; 60 min after administration) was 0.56 ± 0.15 % ID/g. The “Radioactivity distribution Muscle (lower limbs)” value ([2]; 60 min after administration) was 0.16 ± 0.01 % ID/g, the “Radioactivity distribution Remaining whole body” value ([2]; 60 min after administration) was 0.13 ± 0.02 % ID/g and the “Radioactivity distribution Small intestine” value ([2]; 60 min after administration) was 6.65 ± 0.98 % ID/g. For the same compound, the “Radioactivity distribution Spleen” value ([2]; 60 min after administration) was 0.34 ± 0.07 % ID/g, the “Radioactivity distribution Stomach” value ([2]; 60 min after administration) was 2.22 ± 0.73 % ID/g and the “Radioactivity distribution Testis” value ([2]; 60 min after administration) was 0.03 ± 0.01 % ID/g. The “Radioactivity distribution Whole brain” value ([2]; 60 min after administration) was 0.02 ± 0.01 % ID/g, the B2/B1 accumulation ratio [3] was 0.94 and the “B2 (PSL value, aldosterone-producing adenoma)” value ([3]; site 71b) was 4065. The “B1 (PSL value, normal adrenal cortex)” value ([3]; site 72b) was 4318.

From US10358434B2, “2-(3-pyridinyl)-1H-benzimidazole derivative compound and medicament containing same” (NIHON MEDI-PHYSICS CO., LTD., priority 2014, dated 2019)
